Data: patent US20050163841A1, “Compositions and dosage forms for enhanced absorption of 3-amino-n-butyl-phosphinic acid” (priority 2003, published 2005)
Where two headings read alike, the source gives them in different places.

Columns and labels:
[1] = tested on: patients suffering from Mild Cognitive Impairment (MCI); conditions: 600 mg tid; cited from earlier work
[2] = Human pharmacokinetics of 3-aminopropyl-n-butyl-phosphinic acid (Gleitner 1); format: in vivo, Humans; conditions: implied from urinary excretion after oral administration
[3] = cited from earlier work; for dose-corrected AUC: read from FIG. 4 of Gleitner 1

- absorption through the oral route [2]: 38%
SMILES: CCCCP(=O)(O)CCCN [3-aminopropyl-n-butyl-phosphinic acid]
- cognition in patients with Mild Cognitive Impairment [1]: showed improvements in multiple cognitive domains
- dose-corrected AUC ([3]; 600 mg dose): 40 μmol·h/(L·mmol)
- dose-corrected AUC ([3]; 2100 mg dose): 20 μmol·h/(L·mmol)
- reduction of drug systemic availability after food intake ([3]; after food intake): 30%
- cumulative urinary excretion rate ([3]; within 24 hours of i.v. administration): 99.5+/−6.4 % of the dose
- cumulative urinary excretion rate ([3]; within 24 hours of oral administration): 38+/−13 % of the dose
